In patent US20130337095A1, “ANTIMICROBIAL COMPOSITION AND ITS METHOD OF USE” (Waikatolink Limited, priority 2012, published 2013):
≈ marks a conversion by molar mass, not a printed value. Structures can show the parent of a compound that is named as a salt. Where two headings read alike, the source gives them in different places.

What was measured:
Assay type in all cases: cell-based
[1] = test system: Streptococcus agalactiae (NZRM 2721, ATCC 27956); experiment: MIC assay against S. agalactiae
Procedure: (§1) To exemplify the concept of the present invention, the in vitro activity of three novel plant extracts melaleuca oil, manuka oil, and black walnut hull extract in a specific ratio described herein, were tested against an isolate of various microbes (methicillin-sensitive S. aureus, methicillin-resistant S. aureus, S. pyogenes, S. agalactiae, S. uberis, E. coli, C. albicans) from a reference library.
(§2) MIC90 refers to the minimum inhibitory concentration required to inhibit the growth of 90% of the organisms. The methods and materials used for this preliminary study are outlined in Example 5.
(§3) The test formulation, comprising three novel plant extracts melaleuca oil, manuka oil, and black walnut hull extract in a specific ratio described herein, was serially diluted to give 11 different concentrations. The diluted samples were then incubated with individual microbes, and the MICs were determined as the lowest concentration of test substance that inhibited the growth of the microbe as determined by measurement of OD650 nm using a VersaMax 96 well plate reader. […]

[2] = test system: Staphylococcus aureus (NZCC 4410, ATCC 33591, Strain 328 methicillin resistant); experiment: MIC assay against methicillin-resistant S. aureus
Procedure: as §1, §2, §3

[3] = test system: Pseudomonas aeruginosa (ESR strain 981, NTC 10662, ATCC 25668); experiment: MIC assay, in-vitro anti P. aeruginosa activity; details: antibiotics; for MIC90: Pseudomonas aeruginosa, ATCC25668
Procedure: To exemplify the concept of the present invention, the in vitro activity of three novel plant extracts melaleuca oil, manuka oil, and black walnut hull extract, and blends of these extracts, were tested against an isolate of Pseudomonas aeruginosa from a reference library. MIC90 refers to the minimum inhibitory concentration required to inhibit the growth of 90% of the organisms. The methods and materials used for this preliminary study are outlined in Example 3.
• The methodology used in this study is based on standard MIC assay methods referenced in numerous publications. • Each of the extracts was serially diluted to give 11 different concentrations. The diluted samples were then incubated with the Pseudomonas aeruginosa (ESR strain 981, NTC 10662, ATCC 25668, DSM 46358, NC/MB 13063). The MICs were determined as the lowest concentration of each extract that inhibits growth of the bacteria as determined by measurement of OD650 nm using a VersaMax 96 well plate reader.
• Tryptic soy agar base (Bacto Difco Media Cat. No. 236940, Becton Dickinson and company). • Mueller II broth cation-adjusted (BBL media Cat. No. 212332, Becton Dickinson and company).
• a) The isolate of Pseudomonas aeruginosa was streaked from −70° C. cryostocks onto Tryptic Soy Agar (TSA) plates and incubated for 24-48 hrs at 37° C. until visible single colonies developed. • b) One colony was picked, using a sterile inoculating loop and used to inoculate sterile 10 ml universals of Mueller II Cation-adjusted broth. Inoculated broths were incubated for approx 18 hrs at 37° C. • c) Following overnight incubation the culture was diluted with fresh sterile Mueller II cation adjusted broth to an OD650 nm of approximately 0.1, equivalent to approx […] (cell number and OD650 nm was determined and optimised prior to commencement of MIC testing). This is the seed broth which was used to inoculate the test wells in each plate. The seed culture was held at 4° C. until required for plating. • d) Stock solutions of each test extract were prepared so that their concentration is 64 μg/ml in the appropriate formulation in Mueller II cation adjusted broth. Once the extract was added to the broth it was mixed using a vortex mixer for approx 30 sec to ensure homogenous dispersion throughout the broth solution. • e) A 96 well microtitre plate was then set up as follows: To all wells, except the first in every row, 100 μl of sterile Mueller II cation adjusted broth was added. The plate was prepared up to 24 hrs in advance and held at −20° C. until ready for use. • f) If the plate was prepared in advance, it needed to be thawed at room temperature. […]

[4] = test system: Escherichia coli (NZRN 2220, ATCC 291214); experiment: MIC assay against E. coli
Procedure: as §1, §2, §3

Streptococcus pyogenes = experiment: MIC assay against S. pyogenes
Procedure: as §1, §2, §3

[5] = test system: Streptococcus uberis (NZRM 2266 NCTC 3858); experiment: MIC assay against S. uberis
Procedure: as §1, §2, §3

[6] = test system: Staphylococcus aureus (NZCC865, ATCC12598); experiment: MIC assay against S. aureus (methicillin-sensitive)
Procedure: as §1, §2, §3

CC1=C(C(=O)O)N2C(=O)[C@@H](NC(=O)[C@H](N)c3ccccc3)[C@H]2SC1 [Cephalexin, Cephalexin hydrate]
MIC antibiotic reference 16 h ([1]; 16 h): 0.098 µg/mL
MIC antibiotic reference 24 h ([1]; 24 h): 0.098 µg/mL

C[C@H]1c2cccc(O)c2C(=O)C2=C(O)[C@]3(O)C(=O)C(C(N)=O)=C(O)[C@@H](N(C)C)[C@@H]3[C@@H](O)[C@@H]21 [Doxycycline]
MIC antibiotic reference 16 h ([2]; 16 h): 0.05 µg/mL (≈ 0.113 µM)

CCN1CCN(c2cc3c(cc2F)c(=O)c(C(=O)O)cn3C2CC2)CC1 [Enfrofloxacin]
MIC antibiotic reference 24 h ([2]; 24 h): 0.05 µg/mL (≈ 0.139 µM)

O=C(O)c1cn(C2CC2)c2cc(N3CCNCC3)c(F)cc2c1=O [G. ciprofloxacin, ciprofloxacin]
MIC90 ([3]; 18 h, read-out: MIC90 18 h): 0.049 µg/mL (≈ 0.148 µM)
MIC90 ([3]; 24 h, read-out: MIC90 24 h): 0.098 µg/mL (≈ 0.296 µM)
MIC antibiotic reference 16 h ([4]; 16 h): 0.049 µg/mL (≈ 0.148 µM)
MIC antibiotic reference 24 h ([4]; 24 h): 0.049 µg/mL (≈ 0.148 µM)

CC1(C)S[C@@H]2[C@H](NC(=O)Cc3ccccc3)C(=O)N2[C@H]1C(=O)O [Penicillin, Penicillin G sodium salt]
MIC antibiotic reference 16 h (Streptococcus pyogenes; 16 h): 0.049 µg/mL
MIC antibiotic reference 24 h (Streptococcus pyogenes; 24 h): 0.049 µg/mL
MIC antibiotic reference 16 h ([5]; 16 h): 0.049 µg/mL
MIC antibiotic reference 24 h ([5]; 24 h): 0.049 µg/mL

[H]/N=C(/N)N[C@H]1[C@H](O)[C@@H](O)[C@H](O[C@@H]2O[C@@H](C)[C@](O)(C=O)[C@H]2O[C@@H]2O[C@@H](CO)[C@H](O)[C@@H](O)[C@@H]2NC)[C@@H](N/C(N)=N\[H])[C@@H]1O [Streptomycin]
MIC antibiotic reference 16 h [6]: 0.003 µg/mL (≈ 0.00516 µM)

gentamicin [F. gentamicin]
MIC90 18 h ([3]; 18 h): 0.098 µg/mL
MIC90 24 h ([3]; 24 h): 3.125 µg/mL
